The values that follow come from paper PMC12430133, “GABAergic and α-Glucosidase-Inhibitory Potentials of Fractions and Isolated Xanthones from Hypericum revolutum Vahl subsp. revolutum” (Molecules, 2025).

One test deals with α-glucosidase. Description: In vitro α-glucosidase-inhibitory assay. In kind it is biochemical.
Test [1] addresses T1, GABAA receptor subtype (α1, β2, and γ2S subunits) (Homo sapiens, UniProt P14867+P18507+P47870).
T1 construct: expressed in transfected cells; host or cells: Xenopus laevis oocytes (Ecocyte), cRNA-injected
The test can be described thus: Functional GABAA receptor assay: modulation of GABA-induced chloride currents (IGABA), two-microelectrode voltage clamp in Xenopus laevis oocytes. Format: cell-based. To be noted: 100 µg/mL, isolated compounds; for IGABA potentiation: GABA EC10, mean ± S.E.M. The protocol: The effects of both fractions and isolated compounds from the PS and PL extracts were determined on GABA-induced chloride currents through the predominantly occurring GABAA receptor subtype (comprising α1, β2, and γ2S subunits). GABAA receptors were heterologously expressed in Xenopus laevis (Grade I–II) oocytes as described previously. The fractions and compounds were tested at a concentration of 100 µg/mL. For the fractions, a 100 µg/mL concentration was used in assessing their IGABA modulatory potential because previous studies have also used the same concentration to assess the IGABA modulatory potential of plant extracts and/or fractions in a similar experimental model. For the compounds, we tested their IGABA modulatory potential at 100 µg/mL to maintain a consistent concentration as the fractions, which provides a comparative perspective about the efficacy of the compounds relative to the fractions.
In brief, defolliculated oocytes were obtained from Ecocyte (Dortmund, Germany) and injected with 50–75 nL of nuclease-free water containing a mixture (ratio 1:1:10) of cRNAs encoding for the major GABAA receptor subtype (α1, β2, and γ2S; concentrations ranging between 100 and 2000 ng/μL/subunit) using a Nanoject III microinjector (Drummond Scientific Company, Broomall, PA, USA). Oocytes were stored at 18 °C in ND96 solution composed of 90 mM NaCl, 1 mM KCl, 1 mM MgCl2·6H2O, 1 mM CaCl2, and 5 mM 2-(4-(2-hydroxyethyl)-1-piperazinyl)ethanesulfonic acid (HEPES), with pH adjusted to 7.4 using 1 M NaOH and supplemented with 100 U/mL penicillin and 10 µg/mL streptomycin. Functional characterisation was then carried out 1–3 days post-injection using two-microelectrode voltage-clamp (TEVC) recordings holding oocytes at −70 mV using a TURBO TEC 03C amplifier (NPI Electronic, Tamm, Germany) connected to an Axon Digidata 1440A digitiser (Molecular Devices, Sunnyvale, CA, USA). Data acquisition was performed using pCLAMP software version 10.3 (Molecular Devices), and current traces were analysed offline. Microelectrodes were filled with 2 M KCl and had resistances between 1 and 3 MΩ. GABA and test compounds were applied using a TECAN Miniprep 60 (npi electronic, Tamm, Germany), permitting semi-automation of the experiments coupled to a fast perfusion system. The oocyte-containing chamber was perfused with 200 µL GABA-containing solutions at a volume rate between 150 and 200 µL/s to elicit chloride currents through GABAA receptors (IGABA). Modulation of IGABA by the compounds was measured at a GABA concentration eliciting 10% of the maximal current amplitude (EC10), peak amplitudes were measured, and the effect was calculated using the following formula: IGABA potentiation%=Amplitude IGABA−sample−Amplitude IGABA−control/Amplitude IGABA−control×100
IGABA+Sample is the current induced by co-application of GABA and the tested sample, while IGABA−control is the current induced by application of GABA alone.

T1 sequence (P14867 28-456): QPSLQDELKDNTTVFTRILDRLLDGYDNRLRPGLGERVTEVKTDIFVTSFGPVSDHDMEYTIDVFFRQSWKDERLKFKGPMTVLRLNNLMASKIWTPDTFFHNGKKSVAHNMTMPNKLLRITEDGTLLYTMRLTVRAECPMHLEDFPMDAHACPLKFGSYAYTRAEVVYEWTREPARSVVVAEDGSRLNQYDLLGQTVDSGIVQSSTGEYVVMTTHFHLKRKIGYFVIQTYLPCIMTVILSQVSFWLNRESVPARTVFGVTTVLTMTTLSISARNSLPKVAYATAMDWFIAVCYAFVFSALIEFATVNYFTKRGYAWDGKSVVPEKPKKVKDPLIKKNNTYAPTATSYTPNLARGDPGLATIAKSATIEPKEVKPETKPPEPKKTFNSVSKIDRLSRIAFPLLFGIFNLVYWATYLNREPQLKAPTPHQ
T1 sequence (P47870 25-512 limits assumed): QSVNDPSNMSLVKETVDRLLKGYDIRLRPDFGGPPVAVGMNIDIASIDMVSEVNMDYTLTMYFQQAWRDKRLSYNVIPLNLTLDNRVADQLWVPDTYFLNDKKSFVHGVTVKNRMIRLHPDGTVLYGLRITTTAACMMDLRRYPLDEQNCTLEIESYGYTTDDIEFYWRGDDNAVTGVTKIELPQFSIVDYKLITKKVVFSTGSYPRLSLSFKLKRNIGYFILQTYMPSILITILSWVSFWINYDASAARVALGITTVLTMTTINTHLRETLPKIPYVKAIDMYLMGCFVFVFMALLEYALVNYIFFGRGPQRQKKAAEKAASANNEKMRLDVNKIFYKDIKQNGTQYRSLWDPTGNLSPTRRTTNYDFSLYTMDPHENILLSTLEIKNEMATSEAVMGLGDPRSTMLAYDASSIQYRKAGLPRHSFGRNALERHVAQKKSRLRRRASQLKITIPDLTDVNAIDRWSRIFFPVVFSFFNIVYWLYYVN
T1 sequence (P18507 40-467 isoform P18507-1 limits assumed): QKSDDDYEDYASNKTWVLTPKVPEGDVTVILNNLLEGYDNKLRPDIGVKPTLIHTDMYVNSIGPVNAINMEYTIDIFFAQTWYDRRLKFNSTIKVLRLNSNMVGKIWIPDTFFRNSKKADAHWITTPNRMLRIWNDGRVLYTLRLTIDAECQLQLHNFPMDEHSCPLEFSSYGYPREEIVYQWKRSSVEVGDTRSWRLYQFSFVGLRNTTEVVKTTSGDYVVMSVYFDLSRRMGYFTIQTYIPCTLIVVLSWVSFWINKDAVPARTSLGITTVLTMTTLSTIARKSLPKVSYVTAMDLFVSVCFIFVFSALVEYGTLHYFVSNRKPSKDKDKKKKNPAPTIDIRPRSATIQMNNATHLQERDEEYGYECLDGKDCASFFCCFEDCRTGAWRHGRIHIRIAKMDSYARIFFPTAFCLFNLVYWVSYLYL
Experimental for α-glucosidase: The alpha-glucosidase-inhibitory potency of the fractions was assessed by determining whether the fractions can inhibit the activity of α-glucosidase, a carbohydrate-digesting enzyme. The fractions were tested at a concentration of 60 µg/mL.
A previous method [66] was adopted to perform the glucosidase inhibition assay. It was performed on a 96-well transparent plate. […] Next, 50 µL of 10 mM 4-nitrophenyl-β-D-glucopyranoside substrate solution (dissolved in 100 mM phosphate buffer, pH 6.8) was added, and incubation continued for an additional 20 min under the same incubation conditions. After incubation, the enzyme-substrate reaction was stopped by adding 100 µL of a 0.1 M Na2CO3 solution, and absorbance was measured at 405 nm. The absorbances were blanked using the sample and solvent blanks. The enzyme inhibition activity of the samples was computed using the formula below: Enzyme inhibition activity%=Absorbance of control−Absorbance of test/Absorbance of control×100

For `COc1cc([C@@H]2Oc3c(OC)cc4c(=O)c5ccccc5oc4c3O[C@H]2CO)ccc1O` (relative stereo) [Compound 3, trans-3-(4-hydroxy-3-methoxyphenyl)-2-(hydroxymethyl)-5-methoxy-2,3-dihydro-7H-[1,4]dioxino[2,3-c]xanthen-7-one], the concentration for half-maximal inhibition (IC50) at α-glucosidase (dose-dependent assay 1.5625–100 µM, isolated compound and acarbose, read-out: α-glucosidase inhibition IC50) was 45.1 µM. Also, in test [1], the IGABA potentiation is 5 ± 7% and the “Effect on IGABA (in words)” value was “inactive”.
For the molecule `C[C@H]1O[C@H](O[C@H]2[C@H](O)[C@@H](O)[C@@H](O[C@H]3[C@H](O)[C@@H](O)C(O)O[C@@H]3CO)O[C@@H]2CO)[C@H](O)[C@@H](O)[C@@H]1N[C@H]1C=C(CO)[C@@H](O)[C@H](O)[C@H]1O` (some centres unmarked) [Acarbose, acarbose, reference compound], in the test on α-glucosidase (tested at 60 μg/mL, fractions from MeOH extract of PS (plant stem) and acarbose, NAD = no activity detected), the “Glucosidase-Inhibitory Activity (%)” value is 94.3 ± 1.86%.
As to `COc1cc2c(=O)c3ccccc3oc2c(O)c1OC` [Compound 1, 4-hydroxy-2,3-dimethoxy-9H-xanthen-9-one], in test [1], the IGABA potentiation is listed as 65 ± 13% and the “Effect on IGABA (in words)” value is “significantly enhanced IGABA”.
On the same counts, the results for `COc1cc2c(=O)c3ccccc3oc2c(OC)c1O` [Compound 2, 3-hydroxy-2,4-dimethoxy-9H-xanthen-9-one] are 36 ± 9% and “significantly enhanced IGABA”.
